The values below come from publication PMC4503694, “The Human Autoantibody Response to Apolipoprotein A-I Is Focused on the C-Terminal Helix: A New Rationale for Diagnosis and Treatment of Cardiovascular Disease?” (PLoS ONE, 2015).

One data set concerns RAW cells. Briefly: Anti-ApoA-I IgG-induced TNF-α release in RAW mouse macrophage cell line. The data set is classed as cell-based. To be noted: anti-ApoA-I IgG 100 μg/ml preincubated 2 h with peptide 100 to 0.06 μg/ml; 24 h stimulation; ELISA; n = 3 (Fig 7). How it is done:
Raw cells were seeded in 96-well plates at 2 × 10^5 cells/well in DMEM culture medium (10% heat-inactivated FCS, 50 μg/ml streptomycin, 50 U/ml penicillin) for 24 h. Anti-Apo-A1 IgG (100 μg/ml) were incubated with peptides across a concentration range from 100 μg/ml to 0.06 μg/ml for 2 h at room temperature prior addition to cells. After 24 h stimulation, mouse TNF-α was quantified in the cell supernatants by ELISA according to manufacturer’s instructions (R&D system, MN).
Fig 7 Comparing the inhibitory potency of Peptide F and F3L1 on anti-ApoA-I IgG-induced TNF-α. Anti-ApoA-I IgG was incubated with the indicated peptide concentrations (preincubation 2 h at room temperature) prior to addition to cultured RAW cells. Levels of proinflammatory cytokines (TNF-α) were determined after 24 h culture. Mean levels (n = 3) are shown with error bars indicating the range.
In general terms: An ELISA detects its analyte on a solid surface through an enzyme-linked reagent.

Data set [1] can be described thus: CD spectroscopy (alpha-helical content). The data set is classed as physicochemical. The following applies: 100 μM peptide in water with 1.25% trifluoroethanol, 20°C (Fig 2). How it is done: Experiments were carried out in 0.1 cm quartz cell using a Jasco J-710 spectrometer with 100 μM peptide solutions (1.25% trifluoroethanol in water) at 20°C.
Fig 2 CD spectroscopy of peptide F3L1 indicates increased alpha-helical content. CD spectra of Peptide F and F3L1 were measured at 100μM concentration in water containing 1.25% trifluoroethanol.

Data set [2] has as its system human monocyte-derived macrophages. Briefly: Anti-ApoA-I IgG-mediated IL-6 and TNF-α release from human monocyte-derived macrophages. Type of data set: cell-based. As for the experimental part: Human monocytes were isolated from buffy coats from healthy donors at the Geneva University Hospitals Blood Transfusion Center and differentiated into macrophages by 24 h incubation with IFN-γ (500 U/ml) in complete RPMI-1640 culture medium (10% heat-inactivated FCS, 50 μg/ml streptomycin, 50 U/ml penicillin, 2 mM L-glutamine), as previously described. Assays of anti-ApoA-I IgG-mediated release of IL-6 and TNF-α from human monocyte-derived macrophages was carried out as described previously using a previously determined optimal concentration of polyclonal goat anti-ApoA-I IgG (40 μg/ml). Endotoxin contamination in the assay was excluded using the limulus amebocyte lysate Endochrome assay. Where indicated, anti-ApoA-I IgG was pre-incubated with peptide […] (1 mg/mL) for 2 h at room temperature prior addition to the cells. Each experiment was performed on cells from […] different healthy blood donors. […] We next used a Luminex assay to measure the capacity of peptide […] to inhibit endotoxin-free anti-ApoA-I IgG-mediated proinflammatory cytokine release in human monocyte-derived macrophages (Fig 5a and 5b). As expected from previously published work, anti-ApoA-I IgG elicited a significant increase in production of both in IL-6 and TNF-α when compared to control IgG (Ctl IgG; p<0.0001 for both cytokines). […] We were unable to measure the inhibitory activity of intact purified and delipidated ApoA-I in this assay because traces of endotoxin elicit significant levels of background cytokine secretion (NV and SP, unpublished observations).  Fig 5 Peptide […] inhibits anti-ApoA-I IgG-mediated release of proinflammatory cytokines from cultured human monocyte-derived macrophages. Release of proinflammatory cytokines TNF-α (a) IL-6 (b) from human monocyte-derived macrophages induced by endotoxin-free goat polyclonal anti-ApoA-I IgG was determined with or without preincubation (2 h at room temperature) of the anti-ApoA-I IgG with peptide […] (1 mg/mL) and the corresponding scrambled peptide (Scr Pept). […] Anti-ApoA-I IgG was incubated with the indicated […] concentrations (preincubation 2 h at room temperature) prior to addition to cultured human monocyte-derived macrophages. Levels of proinflammatory cytokines were determined after 24 h culture. Experiments were repeated using cells from three different healthy donors, with results expressed as median, interquartile range (IQR) and range.

For data set [3], the system named is anti-ApoA-I antibodies in plasma samples from three different patients. The experiment in a line: Competition ELISA with plasma of three individual anti-ApoA-I-positive patients. The data set is classed as binding, human. To be noted: preincubated 2 h at room temperature with peptide, n = 3 (Fig 3). As for the experimental part: We next performed ELISA assays using plasma samples from three different anti-ApoA-I autoantibody-positive patients from the cohort pre-incubated with Peptide F, a scrambled version of Peptide F (Table 1), or the stapled peptide F3L1 prior to addition to wells coated with ApoA-I (Fig 3).
Plasma samples were preincubated (2 h, room temperature) with peptides at the indicated concentrations prior to addition to assay wells. Percent maximal ELISA signals were calculated as 100 × ([signal in well]-[mean background signal (uncoated well)])/ ([mean maximal signal (no peptide)]-[mean background signal]). Results are expressed as mean ± SD (n = 3).

Where [4] appears, read: anti-ApoA-I IgG 40 μg/ml preincubated 2 h at room temperature with peptide 1 mg/mL (342 μM), nine donors, Luminex.

Take “Ac-GLLPVLESFKVSFLSALEEYTKKLNT-NH2 (also: sidechain bridge or staple (positions not given here)) [Peptide F3L1, stapled version of Peptide F with a Glu-Lys lactam bridge]”: the “inhibitory potency on anti-ApoA-I IgG-induced TNF-α” value with RAW cells was “clearly a more potent inhibitor than Peptide F”. Further, the “alpha-helical content by CD” value in data set [1] is “increased alpha-helical content compared to the parent molecule”. Also, in data set [2] (setting [4]), the “median IL-6 production” value was 19.2 pg/mL and the “median TNF-α production” value amounted to 48.4 pg/mL. Moreover, the “inhibition of anti-ApoA-I IgG-induced TNF-α and IL-6 release” value in data set [2] (peptide preincubated with anti-ApoA-I IgG 2 h at room temperature, highest concentration 1 mg/mL (Fig 5, 6)) is on record as “dose-dependent manner”. Also, in data set [2] (peptide without anti-ApoA-I IgG, trend for TNF-α, p = 0.05), the “cytokine production by peptide compared to control IgG” value is “devoid of significant biological activity”. Further, in data set [3], the “inhibition of binding of anti-ApoA-I IgG to immobilized ApoA-I” value is reported as “consistently improved binding inhibition with respect to Peptide F”.
